This is an account of results in the supplement of paper PMC10307832.

Common to all, as to experiment: relative viability (nuclei count vs DMSO), 5 days (fraction); higher = more cells survive
Compound in the assay “Alpelisib + OSI-027”: Cc1nc(NC(=O)N2CCC[C@H]2C(N)=O)sc1-c1ccnc(C(C)(C)C(F)(F)F)c1 [Alpelisib] + COc1cccc2cc(-c3nc([C@H]4CC[C@H](C(=O)O)CC4)n4ncnc(N)c34)[nH]c12 [OSI-027] (partner 0.5 µM)
In outline: (§1)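 Cells from lung cancer lines were seeded into 1536-well plates and, one day later, dosed by pin tool. Treatments were either a single drug or a fixed dose of an anchor drug with five library-drug doses (not always all listed) in √10 steps. After 5 days, nuclei were stained in a one-step fixation (final 0.05% Triton X-100, 1% formaldehyde, 1 ug/ml Hoechst) and counted on 4× images, and relative viability is the treated-to-vehicle nuclei ratio, as the median of duplicate plates.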

Compound in the assay “Alpelisib + Pemetrexed”: Cc1nc(NC(=O)N2CCC[C@H]2C(N)=O)sc1-c1ccnc(C(C)(C)C(F)(F)F)c1 [Alpelisib] + Nc1nc2[nH]cc(CCc3ccc(C(=O)N[C@@H](CCC(=O)O)C(=O)O)cc3)c2c(=O)[nH]1 [Pemetrexed] (partner 0.2 µM)
Put shortly:
as §1

Compound in the assay “OSI-027 + Pictilisib”: COc1cccc2cc(-c3nc([C@H]4CC[C@H](C(=O)O)CC4)n4ncnc(N)c34)[nH]c12 [OSI-027] + CS(=O)(=O)N1CCN(Cc2cc3nc(-c4cccc5[nH]ncc45)nc(N4CCOCC4)c3s2)CC1 [Pictilisib] (partner 1 µM)
In outline: as §1

Compound in the assay “Vemurafenib + Vorinostat”: CCCS(=O)(=O)Nc1ccc(F)c(C(=O)c2c[nH]c3ncc(-c4ccc(Cl)cc4)cc23)c1F [Vemurafenib] + O=C(CCCCCCC(=O)Nc1ccccc1)NO [Vorinostat] (partner 1 µM)
In outline:
as §1

Take NCI-H1944: the relative viability with Alpelisib + OSI-027 (first compound 0.04 µM) came to 0.365; in the assay with Alpelisib + OSI-027 (first compound 0.1265 µM), 0.401; in the assay with Alpelisib + OSI-027 (first compound 0.4 µM), 0.332; with Alpelisib + OSI-027 (first compound 1.265 µM) it was 0.281; in the assay with Alpelisib + OSI-027 (first compound 4 µM), 0.223; with Alpelisib + Pemetrexed (first compound 0.04 µM), 0.596. Further, the relative viability with Alpelisib + Pemetrexed (first compound 0.1265 µM) came to 0.695; in the assay with Alpelisib + Pemetrexed (first compound 0.4 µM) it was 0.677; with Alpelisib + Pemetrexed (first compound 1.265 µM) it was 0.5; in the assay with Alpelisib + Pemetrexed (first compound 4 µM), 0.502; with OSI-027 + Pictilisib (first compound 0.01 µM) it was 0.369; with OSI-027 + Pictilisib (first compound 0.03162 µM) it was 0.349. Further, the relative viability with OSI-027 + Pictilisib (first compound 0.1 µM) amounted to 0.32; in the assay with OSI-027 + Pictilisib (first compound 0.3162 µM), 0.287; in the assay with OSI-027 + Pictilisib (first compound 1 µM), 0.247; with Vemurafenib + Vorinostat (first compound 0.03162 µM), 0.538; with Vemurafenib + Vorinostat (first compound 0.3162 µM) it was 0.671; in the assay with Vemurafenib + Vorinostat (first compound 1 µM) it was 0.515.
Turning to H3255, the relative viability is 0.526 with Alpelisib + OSI-027 (first compound 0.04 µM); 0.583 with Alpelisib + OSI-027 (first compound 0.1265 µM); 0.635 in the assay with Alpelisib + OSI-027 (first compound 0.4 µM); 0.363 in the assay with Alpelisib + OSI-027 (first compound 1.265 µM); 0.384 with Alpelisib + OSI-027 (first compound 4 µM); 0.586 with Alpelisib + Pemetrexed (first compound 0.04 µM). The relative viability worked out at 0.614 with Alpelisib + Pemetrexed (first compound 0.1265 µM); 0.603 with Alpelisib + Pemetrexed (first compound 0.4 µM); 0.526 in the assay with Alpelisib + Pemetrexed (first compound 1.265 µM); 0.507 with Alpelisib + Pemetrexed (first compound 4 µM); 0.466 with OSI-027 + Pictilisib (first compound 0.01 µM); 0.471 in the assay with OSI-027 + Pictilisib (first compound 0.03162 µM). Besides, the relative viability with OSI-027 + Pictilisib (first compound 0.1 µM) stood at 0.441; with OSI-027 + Pictilisib (first compound 0.3162 µM) it was 0.379; in the assay with OSI-027 + Pictilisib (first compound 1 µM), 0.24; in the assay with Vemurafenib + Vorinostat (first compound 0.03162 µM), 0.758; with Vemurafenib + Vorinostat (first compound 0.3162 µM) it was 0.709; with Vemurafenib + Vorinostat (first compound 1 µM) it was 0.638.
With NCI-H2087, the relative viability with Alpelisib + OSI-027 (first compound 0.04 µM) is 0.503; in the assay with Alpelisib + OSI-027 (first compound 0.1265 µM), 0.484; in the assay with Alpelisib + OSI-027 (first compound 0.4 µM), 0.482; with Alpelisib + OSI-027 (first compound 1.265 µM) it was 0.342; with Alpelisib + OSI-027 (first compound 4 µM), 0.336; with Alpelisib + Pemetrexed (first compound 0.04 µM), 0.634. The relative viability with Alpelisib + Pemetrexed (first compound 0.1265 µM) was found to be 0.625; with Alpelisib + Pemetrexed (first compound 0.4 µM), 0.679; with Alpelisib + Pemetrexed (first compound 1.265 µM), 0.65; with Alpelisib + Pemetrexed (first compound 4 µM) it was 0.606; with OSI-027 + Pictilisib (first compound 0.01 µM), 0.794; with OSI-027 + Pictilisib (first compound 0.03162 µM), 0.787. The relative viability with OSI-027 + Pictilisib (first compound 0.1 µM) is 0.686; with OSI-027 + Pictilisib (first compound 0.3162 µM), 0.523; with OSI-027 + Pictilisib (first compound 1 µM), 0.329; in the assay with Vemurafenib + Vorinostat (first compound 0.03162 µM) it was 0.894; with Vemurafenib + Vorinostat (first compound 0.1 µM), 0.958; with Vemurafenib + Vorinostat (first compound 0.3162 µM) it was 0.531. Besides, the relative viability with Vemurafenib + Vorinostat (first compound 1 µM) was determined as 0.716.
For the cell line RERF-LC-KJ, the relative viability with Alpelisib + OSI-027 (first compound 0.04 µM) is 0.482; with Alpelisib + OSI-027 (first compound 0.1265 µM), 0.547; with Alpelisib + OSI-027 (first compound 0.4 µM), 0.507; with Alpelisib + OSI-027 (first compound 1.265 µM), 0.393; with Alpelisib + OSI-027 (first compound 4 µM), 0.347; in the assay with Alpelisib + Pemetrexed (first compound 0.04 µM), 0.504. Besides, the relative viability came to 0.477 with Alpelisib + Pemetrexed (first compound 0.1265 µM); 0.456 with Alpelisib + Pemetrexed (first compound 0.4 µM); 0.406 in the assay with Alpelisib + Pemetrexed (first compound 1.265 µM); 0.464 in the assay with Alpelisib + Pemetrexed (first compound 4 µM); 0.508 with OSI-027 + Pictilisib (first compound 0.01 µM); 0.542 with OSI-027 + Pictilisib (first compound 0.03162 µM). Also, the relative viability amounted to 0.492 with OSI-027 + Pictilisib (first compound 0.1 µM); 0.393 with OSI-027 + Pictilisib (first compound 0.3162 µM); 0.344 with OSI-027 + Pictilisib (first compound 1 µM); 0.616 with Vemurafenib + Vorinostat (first compound 0.03162 µM); 0.659 with Vemurafenib + Vorinostat (first compound 0.1 µM); 0.625 with Vemurafenib + Vorinostat (first compound 0.3162 µM). For the same cell line, the relative viability with Vemurafenib + Vorinostat (first compound 1 µM) was found to be 0.709.
With NCI-H2228, the relative viability in the assay with Alpelisib + OSI-027 (first compound 0.04 µM) was determined as 0.612; in the assay with Alpelisib + OSI-027 (first compound 0.1265 µM), 0.53; with Alpelisib + OSI-027 (first compound 0.4 µM), 0.385; with Alpelisib + OSI-027 (first compound 1.265 µM), 0.239; in the assay with Alpelisib + OSI-027 (first compound 4 µM) it was 0.152; with Alpelisib + Pemetrexed (first compound 0.04 µM) it was 0.35. Moreover, the relative viability in the assay with Alpelisib + Pemetrexed (first compound 0.1265 µM) is 0.228; in the assay with Alpelisib + Pemetrexed (first compound 0.4 µM) it was 0.39; in the assay with Alpelisib + Pemetrexed (first compound 1.265 µM), 0.272; in the assay with Alpelisib + Pemetrexed (first compound 4 µM) it was 0.319; with OSI-027 + Pictilisib (first compound 0.01 µM), 0.412; in the assay with OSI-027 + Pictilisib (first compound 0.03162 µM), 0.281. Also, the relative viability with OSI-027 + Pictilisib (first compound 0.1 µM) is 0.474; in the assay with OSI-027 + Pictilisib (first compound 1 µM), 0.249; with Vemurafenib + Vorinostat (first compound 0.03162 µM) it was 0.457; in the assay with Vemurafenib + Vorinostat (first compound 0.1 µM) it was 0.536; in the assay with Vemurafenib + Vorinostat (first compound 0.3162 µM), 0.589; with Vemurafenib + Vorinostat (first compound 1 µM) it was 0.595.
